This passage reports pest or weed control results from US20230017045A1, “PYRIDINE AND PYRIMIDINE CARBOXYLATE HERBICIDES AND METHODS OF USE THEREOF” (Dow AgroSciences LLC, priority 2017, published 2023).

Like-named read-outs stand apart in the source and are kept apart here.

In the assay the test system is test plant species. The experiment in a line: Post-emergent herbicidal activity test (greenhouse, foliar spray, visual growth reduction). The following applies: post-emergence, 336 h, 140 g ai/ha, 14 days after application. It counts as in vivo. The procedure, abridged: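 Scoring used a 0 to 100 percent visual scale of growth reduction against solvent-treated controls, read 14 d after spraying. Applications went onto plants at first or second true leaf stage, 187 L/ha, with crop oil concentrate and X-77 surfactant in the carrier. Post-treatment watering was by subirrigation to avoid wash-off.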

[1] abbreviates: ALOMY: blackgrass (Alopecurus myosuroides), read-out: Visual Growth Reduction (%) 14 Days After Application, ALOMY.
[2] abbreviates: AMARE: redroot pigweed (Amaranthus retroflexus), read-out: Visual Growth Reduction (%) 14 Days After Application, AMARE.
Setting [3] is: AVEFA: wild oat (Avena fatua), read-out: Visual Growth Reduction (%) 14 Days After Application, AVEFA.
Where [4] appears, read: CHEAL: lambsquarters (Chenopodium album), read-out: Visual Growth Reduction (%) 14 Days After Application, CHEAL.
Setting [5] is: CIRAR: canada thistle (Cirsium arvense), read-out: Visual Growth Reduction (%) 14 Days After Application, CIRAR.
[6] abbreviates: CYPES: yellow nutsedge (Cyperus esculentus), read-out: Visual Growth Reduction (%) 14 Days After Application, CYPES.
Setting [7] is: DIGSA: crabgrass (Digitaria sanguinalis), read-out: Visual Growth Reduction (%) 14 Days After Application, DIGSA.
Setting [8] is: ECHCG: barnyardgrass (Echinochloa crus-galli), read-out: Visual Growth Reduction (%) 14 Days After Application, ECHCG.
Setting [9] is: IPOHE: ivy-leaf morning glory (Ipomoea hederacea), read-out: Visual Growth Reduction (%) 14 Days After Application, IPOHE.
Setting [10] is: KCHSC: kochia (Bassia scoparia), read-out: Visual Growth Reduction (%) 14 Days After Application, KCHSC.
The mark [11] stands for this setting: ORYSA: rice (Oryza sativa), read-out: Visual Growth Reduction (%) 14 Days After Application, ORYSA.
The mark [12] stands for this setting: SETFA: giant foxtail (Setaria faberi), read-out: Visual Growth Reduction (%) 14 Days After Application, SETFA.
Setting [13] is: SORVU: grain sorghum (Sorghum vulgare), read-out: Visual Growth Reduction (%) 14 Days After Application, SORVU.
Setting [14] is: STEME: common chickweed (Stellaria media), read-out: Visual Growth Reduction (%) 14 Days After Application, STEME.
[15] abbreviates: TRZAS: wheat, spring (Triticum aestivum), read-out: Visual Growth Reduction (%) 14 Days After Application, TRZAS.

As for `COC(=O)c1nc(-c2ccc(C(F)(F)F)c(C#N)c2Cl)ccc1Cl` [F143, methyl 3-chloro-6-(2-chloro-3-cyano-4-(trifluoromethyl)phenyl)picolinate], the pest or weed control at 140 g/ha lay in the range of 0 to 29% under setting [1]; 45 to 59% under setting [2]; 0 to 29% under setting [3]; 30 to 44% under setting [4]; 0 to 29% under setting [5]; 0 to 29% under setting [6]. Also, the pest or weed control at 140 g/ha was in the range of 75 to 84% under setting [7]; 0 to 29% under setting [8]; 75 to 84% under setting [9]; 0 to 29% under setting [10]; 0 to 29% under setting [11]; 0 to 29% under setting [12]. Also, the pest or weed control at 140 g/ha fell in the range of 60 to 74% under setting [13], 0 to 29% under setting [14] and 0 to 29% under setting [15].

With `COC(=O)c1nc(-c2cc3c(cc2Cl)OCO3)ccc1Cl` [F144, Methyl 3-chloro-6-(6-chlorobenzo[d] [1,3]dioxol-5-yl) picolinate], the pest or weed control at 140 g/ha under setting [1] lay in the range of 0 to 29%; the pest or weed control at 140 g/ha under setting [2] was 45 to 59%; the pest or weed control at 140 g/ha under setting [3] was 0 to 29%; the pest or weed control at 140 g/ha under setting [4] was 75 to 84%; the pest or weed control at 140 g/ha under setting [5] lay within 0 to 29%; the pest or weed control at 140 g/ha under setting [6] was 0 to 29%. Besides, the pest or weed control at 140 g/ha under setting [7] lay within 0 to 29%; the pest or weed control at 140 g/ha under setting [8] lay within 0 to 29%; the pest or weed control at 140 g/ha under setting [9] is 75 to 84%; the pest or weed control at 140 g/ha under setting [10] lay in the range of 0 to 29%; the pest or weed control at 140 g/ha under setting [11] was 0 to 29%; the pest or weed control at 140 g/ha under setting [12] fell in the range of 0 to 29%. Moreover, the pest or weed control at 140 g/ha was 0 to 29% under setting [13], 0 to 29% under setting [14] and 0 to 29% under setting [15].

Take `COC(=O)c1nc(-c2ccc(C(F)(F)F)cc2C(N)=O)ccc1Cl` [F146, Methyl 6-(2-carbamoyl-4-(trifluoromethyl)phenyl)-3-chloropicolinate]: the pest or weed control at 140 g/ha was in the range of 0 to 29% under setting [1]; 0 to 29% under setting [2]; 0 to 29% under setting [3]; 0 to 29% under setting [4]; 0 to 29% under setting [5]; 0 to 29% under setting [6]. In addition, the pest or weed control at 140 g/ha by setting is: under setting [7], 0 to 29%; under setting [8], 0 to 29%; under setting [9], 30 to 44%; under setting [10], 0 to 29%; under setting [11], 0 to 29%; under setting [12], 0 to 29%. The pest or weed control at 140 g/ha under setting [13] lay in the range of 0 to 29%, the pest or weed control at 140 g/ha under setting [14] is 0 to 29% and the pest or weed control at 140 g/ha under setting [15] lay in the range of 0 to 29%.

Take `COC(=O)c1nc(-c2ccc(C(F)(F)F)cc2C(N)=O)c(Cl)cc1Cl` [F147, Methyl 6-(2-carbamoyl-4-(trifluoromethyl)phenyl)-3,5-dichloropicolinate]: the pest or weed control at 140 g/ha runs as follows: under setting [1], 0 to 29%; under setting [2], 45 to 59%; under setting [3], 0 to 29%; under setting [4], 30 to 44%; under setting [5], 0 to 29%; under setting [6], 0 to 29%. The pest or weed control at 140 g/ha runs as follows: under setting [7], 0 to 29%; under setting [8], 0 to 29%; under setting [9], 30 to 44%; under setting [10], 0 to 29%; under setting [11], 0 to 29%; under setting [12], 0 to 29%. The pest or weed control at 140 g/ha under setting [13] was in the range of 0 to 29%, the pest or weed control at 140 g/ha under setting [14] lay in the range of 0 to 29% and the pest or weed control at 140 g/ha under setting [15] fell in the range of 0 to 29%.
